Patent publication US20220275390A1, “RUBISCO-BINDING PROTEIN MOTIFS AND USES THEREOF” (The Trustees of Princeton University, priority 2019, published 2022)
Residues, ends and D or L forms follow the SMILES beside them.

How the values were obtained:
Rubisco = target: T1, Rubisco (Chlamydomonas reinhardtii, UniProt P00873); assay: Surface plasmon resonance (SPR) assay of peptides binding to immobilized Rubisco
T1 construct: Rubisco was purified from Chlamydomonas reinhardtii strain cMJ030; endogenous in cells; host or cells: Chlamydomonas reinhardtii strain cMJ030 (wild type); holoenzyme purified from lysate by sucrose gradient and anion exchange
Experimental: Surface Plasmon Resonance (SPR) Assay Rubisco was immobilized on a surface and peptides in solution were flowed over the surface. Surface plasmon measurements of binding of individual peptides to Rubisco were assayed (FIG. 3B).
Rubisco was purified from Chlamydomonas reinhardtii strain cMJ030. Cells were disrupted by ultrasonication in lysis buffer (10 mM MgCl2, 50 mM Bicine, 10 mM NaHCO3, 1 mM dithiothreitol (DTT) pH 8.0) supplemented with Halt Protease Inhibitor Cocktail, EDTA-Free (Fisher Scientific). The soluble lysate was fractionated by ultracentrifuge in a 10%-30% sucrose gradient in a SW 41 Ti rotor at 35,000 rpm for 20 hours at 4° C. Rubisco-containing fractions were applied to an anion exchange column (MONO Q 5/50 GL, GE Healthcare) and fractionated by using a linear salt gradient from 0 to 0.5 M NaCl (10 mM MgCl2, 50 mM Bicine, 10 mM NaHCO3, 1 mM dithiothreitol pH 8.0).
Mutagenesis of EPYC1, Mutagenesis of Rubisco, Yeast Two-hybrid, Peptide Arrays and SPR Assays To determine the importance of individual EPYC1 residues for binding to Rubisco, the impact on Rubisco binding of every possible single amino acid substitution for EPYC1 RBM 2 was determined (FIG. 8). […]
SPR Assays: The Rubisco-binding capacity for the C-terminal motif variant (W[+]xxΨ ) was determined using SPR by probing purified Rubisco with fifteen amino acid-long synthetic peptides. […]

C. reinhardtii cells = assay: Confocal fluorescence microscopy localization of Venus fusion proteins; format: cell-based, Chlamydomonas reinhardtii; conditions: Venus fluorescence in C. reinhardtii cells
Text: A synthetic […] (Invitrogen) containing a 643 bp restriction fragment containing the C-terminus of Venus, followed by the sequence coding for the FLAG-tag sequence, and a sequence coding for three repetitions of the 15 C-terminal amino acids of SAGA2, was cloned into pLM005-FDX1, after restriction digestion with EcoRl and PfIMI. GenBank accession number of the empty pLM005 is KX077945.1. The plasmid pLM005-FDX1 is identical to pLM005 with the genomic sequence of FDX1 cloned in frame by Gibson Assembly (Mackinder et al., PNAS 113: 5958-5963, 2015) between residues 2698 and 3234. The terminal 85 amino acids of resultant mature fusion protein, immediately downstream of the FLAG-tag, were a 5 aa linker (GGGGS; SEQ ID NO: 87), a first copy of SAGA2 15 C-terminal aa, followed by a 10 aa linker (2X GGGGS; SEQ ID NO: 88), a second copy of SAGA2 15 last aa, another 10 aa linker (2X GGGGS; SEQ ID NO: 88), and finally a third copy of SAGA2 15 last aa. The sequence of the EcoRI-PfIMI digestion fragment (SEQ ID NO: 89) was cloned in frame into pLM005-FDX1.
Culturing and Transformation of C. reinhardtii: Culturing and transformation of C. reinhardtii for fluorescence localization of protein and imaging was performed as described in Mackinder et al. (PNAS 113: 5958-5963, 2015). […]

T1 sequence (P00873 46-185, other chains not shown): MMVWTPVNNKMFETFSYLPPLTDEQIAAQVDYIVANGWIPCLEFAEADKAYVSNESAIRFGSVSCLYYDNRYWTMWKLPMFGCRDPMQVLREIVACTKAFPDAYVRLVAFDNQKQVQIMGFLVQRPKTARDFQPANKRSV

Row | Molecule | Kd (Rubisco; KD, 24 amino acid EPYC1 fragment spanning RBM 2 binding to Rubisco, FIG. 4C) [mM] | Kd (Rubisco; Kd, individual EPYC1 RBM peptides binding to Rubisco) [mM] | localization pattern within the pyrenoid (C. reinhardtii cells; FIG. 15) | localization (C. reinhardtii cells; FIGS. 14B and 15)
1 | CC(C)C[C@H](NC(=O)[C@H](CO)NC(=O)[C@H](CCC(=O)O)NC(=O)[C@H](CC(C)C)NC(=O)[C@H](CCC(=O)O)NC(=O)[C@H](CCC(N)=O)NC(=O)[C@H](CCCNC(=N)N)NC(=O)[C@H](Cc1c[nH]c2ccccc12)NC(=O)[C@H](CC(N)=O)NC(=O)[C@H](C)NC(=O)[C@@H]1CCCN1C(=O)[C@H](CC(C)C)NC(=O)[C@@H](NC(=O)[C@H](CO)NC(=O)[C@H](CCCNC(=N)N)NC(=O)[C@@H](NC(=O)[C@@H]1CCCN1C(=O)[C@H](CO)NC(=O)[C@@H](NC(=O)[C@H](CCCNC(=N)N)NC(=O)[C@H](CC(N)=O)NC(=O)[C@@H](N)[C@@H](C)O)C(C)C)[C@@H](C)O)C(C)C)C(=O)N[C@@H](CCCNC(=N)N)C(=O)N[C@@H](CC(N)=O)C(=O)O [EPYC1 fragment] (H-TNRVSPTRSVLPANWRQELESLRN-OH) | 3.09 | 3 |  | 
2 | RBMP2-Venus: Rubisco-Binding Membrane Protein 2 (SEQ ID NO: 2) fused to the Venus fluorescent protein |  |  | confined to the very heart of the pyrenoid | localized to the pyrenoid
